Data on four molecules can be found in patent US10064838B2, “Method for treating tau-associated diseases using tetrahydropyranol derivatives” (NATIONAL TAIWAN NORMAL UNIVERSITY, priority 2016, dated 2018).

For one series, the target named is T1, ΔK280 tauRD-DsRed (Homo sapiens, UniProt P10636, DEL597-597).
T1 construct: tauRD: Gln^244-Glu^372 of the longest tau^441 isoform; expressed in transfected cells; host or cells: HEK-293 (Tet-On, doxycycline-induced)
The experiment in a line: Inhibition of ΔK280 tauRD-DsRed aggregation (DsRed fluorescence, high content analysis). To be noted: 8 h pretreatment, Dox 3 days, ΔK280 tauRD-DsRed 293 cells. Type of series: cell-based. From the text: We used human embryonic kidney HEK-293 (cultured with DMEM supplemented with 10% FBS) and neuroblastoma SH-SY5Y (cultured with DMEM F12 supplemented with 10% FBS) cells expressing a DsRed-tagged pro-aggregation mutant (ΔK280) of the C-terminal repeat domain of tau (tauRD: Gln^244-Glu^372 of the longest tau^441 isoform). The recombinant tauRD-DsRed construct was under the control of a hybrid human cytomegalovirus (CMV)/TetO2 promoter that can be induced by adding doxycycline. The Tet-On ΔK280 tauRD-DsRed 293 and SH-SY5Y cells were grown in medium containing blasticidin (5 μg/mL) and hygromycin (100 μg/mL) and were used for the following evaluation.
ΔK280 tauRD-DsRed 293 cells were seeded into 96-well plates, grown for 24 h, and pretreated with 0.1, 1, 10 μM of congo red (a known tau aggregation inhibitor), compound (A), compound (B), and compound (C) for 8 h. Then doxycycline (Dox; 1 μg/mL) was added for 3 days to induce ΔK280 tauRD-DsRed expression and DsRed fluorescence was assessed using a high content analysis (HCA) system.
The DsRed fluorescence of ΔK280 tauRD-DsRed fusion protein was used to reflect the aggregation condition of ΔK280 tauRD. Misfolding of fused DsRed occurred when ΔK280 tauRD aggregated, and thus decreasing the DsRed fluorescence. Accordingly, inhibition of ΔK280 tauRD aggregation may improve the DsRed misfolding and increase DsRed fluorescence.

A short description of series [1]: Cytotoxicity in 293 cells expressing ΔK280 tauRD-DsRed fusion protein. Type of series: cell-based. To be noted: human, ΔK280 tauRD-DsRed 293 cells.
Series [2] can be described thus: MTT cytotoxicity in SH-SY5Y cells. Type of series: cell-based. As to conditions: human, 24 h treatment, read-out: half maximal inhibitory concentration (IC50), cytotoxicity. Here is the method: (§1) The HEK-293 cells and SH-SY5Y cells were seeded into a 48-well plate (5×10^4), grown for 24 h, and treated with 0.1 μM, 1 μM, 10 μM, 100 μM of compound (A), compound (B), or compound (C) individually for 24 h. Then 20 μL of MTT (5 mg/mL dissolved in PBS) was added for 2 h and the full wavelength microplate spectrophotometer was used for detecting the absorbance of the purple formazan at 570 nm.
(§2) As a result, the cytotoxicities of compound (A), compound (B), and compound (C) are low and not harmful to the cells.

A short description of series [3]: MTT cytotoxicity in HEK-293 cells. Type of series: cell-based. As to conditions: human, 24 h treatment, read-out: half maximal inhibitory concentration (IC50), cytotoxicity. Here is the method: as §1, §2
Series [4] deals with ΔK280 tauRD-DsRed 293 cells. The experiment in a line: ROS level (DCFH-DA, flow cytometry) in induced ΔK280 tauRD-DsRed 293 cells. Type of series: cell-based, human. To be noted: 10 μM, 8 h pretreatment, Dox 3 days. How it is done: (§3) ΔK280 tauRD-DsRed 293 cells were seeded into 12-well plates, grown for 24 h, and pretreated with 10 μM of congo red, compound (A), compound (B), and compound (C) respectively for 8 h. Then, doxycycline (1 μg/mL) was added for 3 days to induce ΔK280 tauRD-DsRed expression.
Next, uninduced cells, doxycycline-induced but compound-untreated cells, and doxycycline-induced and compound-treated cells were incubated with 2′,7′-dichlorodihydrofluorecein diacetate (DCFH-DA) in 37° C. for 30 minutes, and then washed with PBS. The excited green fluorescence intensity under 492-495/517-527 nm of excitation/emission wavelength was measured using flow cytometry (BD) to evaluate the ROS level.
Background: Flow cytometry measures light scatter and fluorescence of single cells or particles in a stream.

In series [5] the test system is ΔK280 tauRD-DsRed SH-SY5Y cells. Nature of the series: Neurite growth in induced ΔK280 tauRD-DsRed SH-SY5Y cells. The series is classed as cell-based, human. As to conditions: 10 μM, 8 h pretreatment, Dox 7 days, retinoic acid-differentiated. How it is done:
ΔK280 tauRD-DsRed SH-SY5Y tauRD-DsRed cells were seeded in 6-well plate (1×10^5/well) in a medium containing all-trans retinoic acid (10 μM), grown for 24 h, and pretreated with 10 μM of congo red, compound (A), compound (B), and compound (C) for 8 h; after which, ΔK280 tauRD-DsRed expression was induced with 1 μg/mL doxycycline for 7 days. The cells were then fixed in 4% paraformaldehyde, permeabilized with 0.1% Triton X-100, blocked in 3% BSA, stained with the primary antibody anti-TUBB3 (against neuronal Class III β-tubulin) (1:1000; Convance) and with a secondary anti-rabbit Alexa Fluor® 555 antibody (1:500; Molecular Probes), and then incubated at room temperature for 3 h. Nuclei were counterstained with 4′,6-diamidino-2-phenylindole (DAPI). The total outgrowth in the untreated cells, cells treated with congo red, compound (A), compound (B), and compound (C) were assessed using MetaMorph image acquisition and analysis software.

Another series deals with caspase 3. The experiment in a line: Caspase 3 activity (Ac-DEVD-AMC) in induced ΔK280 tauRD-DsRed 293 cells. As to conditions: 10 μM, 8 h pretreatment, Dox 3 days. The series is classed as cell-based, human. How it is done: as §3
In addition, the caspase 3 activity of uninduced cells, doxycycline-induced but compound-untreated cells, and doxycycline-induced and compound-treated cells were measured using Caspase 3 Assay Kit (Sigma). 10^6 cells in each group were harvested and 100 μL of lysis buffer was added, incubated on the ice for 20 minutes, and then, Ac-DEVD-AMC substrate was added into each group. The release of the fluorescent AMC was recorded under 360/460 nm of excitation/emission wavelength using an FLx800 microplate fluorescence reader (Bio-Tek). The caspase 3 activity was calculated using an AMC standard curve.

T1 sequence (P10636 with tags, fused parts or gaps isoform P10636-8 DEL280-280): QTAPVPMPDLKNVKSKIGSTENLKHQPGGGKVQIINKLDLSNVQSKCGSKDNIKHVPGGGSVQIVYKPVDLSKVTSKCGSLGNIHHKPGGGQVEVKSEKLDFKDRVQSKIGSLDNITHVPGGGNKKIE

As to `CCOC(=O)[C@@H]1OC(O)[C@H](C)[C@@H](c2ccc(OC)cc2)[C@@H]1[N+](=O)[O-]` (some centres unmarked) [compound (A)], the “DsRed fluorescence intensity relative to untreated cells (100%)” value at ΔK280 tauRD-DsRed (1-10 μM) is listed as 105-110%. In series [1], this molecule came in with an IC50 at 80 h of 32 µM. For the same molecule, the IC50 at 24 h in series [2] is 267 µM; in series [3], 128 µM.

Regarding `CCOC(=O)[C@@H]1OC(O)[C@H](C)[C@@H](c2cccs2)[C@@H]1[N+](=O)[O-]` (some centres unmarked) [compound (B)], the “DsRed fluorescence intensity relative to untreated cells (100%)” value at ΔK280 tauRD-DsRed (10 μM) turned out to be 111%. Also, in series [1], the IC50 at 80 h was 42 µM. For the same molecule, the IC50 at 24 h in series [2] was 273 µM; in series [3] it was 135 µM.

In the case of `CCOC(=O)[C@@H]1OC(O)[C@H](C)[C@@H](c2ccccc2)[C@@H]1[N+](=O)[O-]` (some centres unmarked) [compound (C)], the “DsRed fluorescence intensity relative to untreated cells (100%)” value at ΔK280 tauRD-DsRed (1-10 μM) is reported as 106-113%. This molecule returned an IC50 at 80 h in series [1] of 42 µM. The figures for the IC50 at 24 h in series [2] and in series [3] were 275 µM and 135 µM, respectively.

Regarding `Nc1c(/N=N/c2ccc(-c3ccc(/N=N/c4cc(S(=O)(=O)O)c5ccccc5c4N)cc3)cc2)cc(S(=O)(=O)O)c2ccccc12` [congo red], at ΔK280 tauRD-DsRed (10 μM), the “DsRed fluorescence intensity relative to untreated cells (100%)” value was 108%. In addition, in series [1], the IC50 at 80 h stood at 60 µM. Also, the “ROS level (uninduced cells 100%; induced untreated 110%)” value in series [4] came out at 93%. Moreover, the “neurite growth (uninduced cells 100%; induced untreated 89%)” value in series [5] is 99%. Moreover, the “caspase 3 activity (uninduced cells 100%; induced untreated 129%)” value in the series with caspase 3 is reported as 63%.
